Data: ChEMBL document CHEMBL1165979, “Peptide fragmentation as an approach in modeling of an active peptide and designing a competitive inhibitory peptide for HMG-CoA reductase” (Bioorg Med Chem, 2010)
Non-standard residues stand in square brackets, D forms with d. Residues, ends and D or L forms follow the SMILES beside them. Phe(4-F) = N[C@@H](Cc1ccc(F)cc1)C(=O)O

These compounds were tested against T1, 3-hydroxy-3-methylglutaryl-coenzyme A reductase (Homo sapiens, UniProt P04035) (assay: Inhibition of HMG-CoA reductase by spectrophotometry). Settings: not given; call rule not given here.
T1 sequence (P04035 whole entry): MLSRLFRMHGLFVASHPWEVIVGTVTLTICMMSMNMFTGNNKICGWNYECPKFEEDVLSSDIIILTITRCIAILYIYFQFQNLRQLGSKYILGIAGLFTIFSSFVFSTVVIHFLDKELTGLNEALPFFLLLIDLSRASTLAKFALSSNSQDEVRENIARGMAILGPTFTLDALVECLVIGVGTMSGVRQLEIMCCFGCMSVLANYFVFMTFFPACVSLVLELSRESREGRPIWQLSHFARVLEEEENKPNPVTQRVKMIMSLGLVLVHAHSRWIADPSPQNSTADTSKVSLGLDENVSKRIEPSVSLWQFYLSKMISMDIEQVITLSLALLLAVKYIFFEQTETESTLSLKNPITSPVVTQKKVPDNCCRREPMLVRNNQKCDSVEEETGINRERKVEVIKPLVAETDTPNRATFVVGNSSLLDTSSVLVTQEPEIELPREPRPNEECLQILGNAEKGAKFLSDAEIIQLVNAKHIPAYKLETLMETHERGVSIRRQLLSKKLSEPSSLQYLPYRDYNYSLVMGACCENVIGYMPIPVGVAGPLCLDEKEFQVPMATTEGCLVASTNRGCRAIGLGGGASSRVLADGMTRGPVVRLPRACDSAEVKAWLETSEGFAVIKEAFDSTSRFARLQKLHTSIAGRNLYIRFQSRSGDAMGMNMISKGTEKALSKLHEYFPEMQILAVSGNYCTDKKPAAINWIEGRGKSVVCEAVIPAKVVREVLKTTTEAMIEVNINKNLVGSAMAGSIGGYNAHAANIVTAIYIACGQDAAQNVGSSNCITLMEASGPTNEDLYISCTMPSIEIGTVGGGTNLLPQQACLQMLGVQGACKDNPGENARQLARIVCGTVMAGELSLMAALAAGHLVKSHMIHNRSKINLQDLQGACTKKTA
`NCC(=O)N[C@@H](Cc1ccc(F)cc1)C(=O)N1CCC[C@H]1C(=O)NCC(=O)NCC(=O)NCC(=O)O` (H-G[Phe(4-F)]PGGG-OH) was tested, and the IC50 was “Not Active”. In the case of H-DFGYVAG-OH, the IC50 is reported as “Not Active”.

Same assay, conditions: read-out: IC50
Work on `C[C@@H](O)[C@H](NC(=O)[C@@H]1CCCN1C(=O)[C@H](Cc1ccc(F)cc1)NC(=O)CN)C(=O)NCC(=O)NCC(=O)O` (H-G[Phe(4-F)]PTGG-OH) yielded an IC50 of 4.82 µM. `CC(C)[C@H](NC(=O)[C@@H](N)Cc1ccc(O)cc1)C(=O)N[C@@H](C)C(=O)N[C@@H](CCC(=O)O)C(=O)O` (H-YVAE-OH) gave an IC50 of 41.2 µM. `CC[C@H](C)[C@H](N)C(=O)N[C@H](C(=O)N[C@@H](C)C(=O)N[C@@H](CCC(=O)O)C(=O)O)C(C)C` (H-IVAE-OH) showed an IC50 of 52.7 µM. `CC(C)[C@H](NC(=O)[C@H](Cc1ccc(F)cc1)NC(=O)CNC(=O)[C@@H](N)Cc1ccccc1)C(=O)N[C@@H](C)C(=O)N[C@@H](CCC(=O)O)C(=O)O` (H-FG[Phe(4-F)]VAE-OH) was tested, and the IC50 was 8.52 µM. H-TFGYVAE-OH showed an IC50 of 0.26 µM. With `NCC(=O)N[C@@H](Cc1ccc(F)cc1)C(=O)N1CCC[C@H]1C(=O)N[C@@H](CCC(=O)O)C(=O)NCC(=O)NCC(=O)O` (H-G[Phe(4-F)]PEGG-OH) the IC50 was 0.75 µM. H-GFPTGG-OH was tested, and the IC50 was 16.9 µM. H-GLPTGG-OH showed an IC50 of 19.4 µM. H-EFGYVAE-OH gave an IC50 of 0.24 µM. H-GLPEGG-OH showed an IC50 of 27.3 µM. Work on H-GFPEGG-OH yielded an IC50 of 1.78 µM. Compound H-IAVPTGVA-OH has an IC50 of 152 µM. H-GLPDGG-OH showed an IC50 of 22.3 µM. Work on H-IAVPGEVA-OH yielded an IC50 of 201 µM. In the case of `CC(C)[C@H](NC(=O)[C@@H](N)Cc1ccc(F)cc1)C(=O)N[C@@H](C)C(=O)N[C@@H](CCC(=O)O)C(=O)O` (H-[Phe(4-F)]VAE-OH), the IC50 is reported as 3.84 µM. For H-GFPDGG-OH, the IC50 was 1.52 µM. With H-FPYVAE-OH the IC50 was 1.47 µM. H-FFYVAE-OH was tested, and the IC50 was 2.56 µM. Work on `CC(C)C[C@H](N)C(=O)N1CCC[C@H]1C(=O)N[C@@H](Cc1ccc(O)cc1)C(=O)N1CCC[C@H]1C(=O)O` (H-LPYP-OH) yielded an IC50 of 485 µM. H-GFGYVAE-OH gave an IC50 of 0.27 µM. For H-FGYVAE-OH, the IC50 was 0.41 µM. `CC(C)[C@H](NC(=O)[C@H](C)NC(=O)[C@@H](N)Cc1ccc(O)cc1)C(=O)N[C@@H](CCC(=O)O)C(=O)O` (H-YAVE-OH) was tested, and the IC50 was 44.8 µM. `CC[C@H](C)[C@H](N)C(=O)N[C@@H](C)C(=O)N[C@H](C(=O)N[C@@H](CCC(=O)O)C(=O)O)C(C)C` (H-IAVE-OH) gave an IC50 of 75.2 µM. `NCC(=O)N[C@@H](Cc1ccc(F)cc1)C(=O)N1CCC[C@H]1C(=O)N[C@@H](CC(=O)O)C(=O)NCC(=O)NCC(=O)O` (H-G[Phe(4-F)]PDGG-OH) showed an IC50 of 6.95 µM. With H-DFGYVAE-OH the IC50 was 0.16 µM.

Each compound was assayed against T1, 3-hydroxy-3-methylglutaryl-coenzyme A reductase (assay: Competitive inhibition of HMG-CoA reductase by Dixon plot analysis). Settings: not given.
`C[C@@H](O)[C@H](NC(=O)[C@@H]1CCCN1C(=O)[C@H](Cc1ccc(F)cc1)NC(=O)CN)C(=O)NCC(=O)NCC(=O)O` (H-G[Phe(4-F)]PTGG-OH) gave a Ki of 0.26 µM. Work on H-DFGYVAE-OH yielded a Ki of 0.051 µM.
